According to US20260262643A1, “HERBICIDAL BENZOXAZINES” (FMC CORPORATION, priority 2022, published 2026):

Experiments:
[1] = tested on: Pigweed, Redroot; test: Test C preemergence; type: in vivo, Amaranthus retroflexus; settings: 1000 g ai/ha, visual rating after 10 days, 0 to 100 scale (0 no effect, 100 complete control)
Text: (§1) Seeds of plant species selected from barnyardgrass (Echinochloa crusgalli), blackgrass (Alopecurus myosuroides), corn (Zea mays), foxtail, giant (giant foxtail, Setaria faberi), green foxtail (Setaria viridis), goosegrass (Eleusine indica), kochia (Bassia scoparia), oat, wild (wild oat, Avena fatua), pigweed, palmer (palmer amaranth, palmer pigweed, Amaranthus palmeri), Pigweed, Redroot (redroot pigweed, Amaranthus retroflexus), ragweed (common ragweed, Ambrosia artemisiifolia), ryegrass, Italian ([…] ryegrass, Lolium multiflorum), soybean (Glycine max), and wheat (Triticum aestivum) were planted into a blend of loam soil and sand and treated preemergence with a directed soil spray using test chemicals formulated in a non-phytotoxic solvent mixture which included a surfactant. At the same time, plants selected from these crops and weed species and also galium (catchweed bedstraw, Galium aparine) and horseweed (Erigeron canadensis) were planted in pots containing the same blend of loam soil and sand and treated with postemergence applications of test chemicals formulated in the same manner. Plants ranged in height from 2 to 10 cm and were in the one- to two-leaf stage for the postemergence treatment. Treated plants and untreated controls were maintained in a greenhouse for 10 days, after which time all treated plants were compared to untreated controls and visually evaluated for injury. Plant response ratings, summarized in Table C, are based on a 0 to 100 scale where 0 is no effect and 100 is complete control. A dash (-) response means no test result.

[2] = tested on: blackgrass; test: Test C postemergence; type: in vivo, Alopecurus myosuroides; settings: Postemergence, 1000 g ai/ha, 0 to 100 scale, 0 no effect, 100 complete control
Procedure, shortened: (§2)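 Seeds sown in loam soil–sand blend received a directed preemergence soil spray of test chemical in non-phytotoxic solvent with surfactant; postemergence plants (2–10 cm, one- to two-leaf stage) were sprayed with the same formulation. Greenhouse-held 10 days, then visually rated for injury versus untreated controls, 0 (no effect) to 100 (complete control).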

[3] = tested on: wheat; test: Test C postemergence; type: in vivo, Triticum aestivum; settings: Postemergence, 1000 g ai/ha; 0 to 100 scale, 0 no effect, 100 complete control
Procedure, shortened: as §2

[4] = tested on: galium; test: Test C postemergence; type: in vivo, Galium aparine; settings: Postemergence, 1000 g ai/ha; 0 to 100 scale, 0 no effect, 100 complete control
Procedure, shortened: as §2

[5] = tested on: corn; test: Test C postemergence; type: in vivo, Zea mays; settings: Postemergence, 1000 g ai/ha, 0 to 100 scale, 0 no effect, 100 complete control
Procedure, shortened: as §2

[6] = tested on: Pigweed, Redroot; test: Test C postemergence; type: in vivo, Amaranthus retroflexus; settings: 1000 g ai/ha, 0 to 100 scale, 0 no effect, 100 complete control
Text: as §1

[7] = tested on: foxtail, giant; test: Test C postemergence; type: in vivo, Setaria faberi; settings: Postemergence, 1000 g ai/ha; 0 to 100 scale, 0 no effect, 100 complete control
Procedure, shortened: as §2

[8] = tested on: kochia; test: Test C preemergence; type: in vivo, Bassia scoparia; settings: Preemergence, 1000 g ai/ha; visual rating after 10 days, 0 to 100 scale (0 no effect, 100 complete control)
Procedure, shortened: as §2

[9] = tested on: ryegrass, Italian; test: Test C postemergence; type: in vivo, Lolium multiflorum; settings: Postemergence, 1000 g ai/ha; 0 to 100 scale, 0 no effect, 100 complete control
Procedure, shortened: as §2

[10] = tested on: barnyardgrass; test: Test C preemergence; type: in vivo, Echinochloa crusgalli; settings: Preemergence, 1000 g ai/ha; visual rating after 10 days, 0 to 100 scale (0 no effect, 100 complete control)
Procedure, shortened: as §2

[11] = tested on: foxtail, giant; test: Test C preemergence; type: in vivo, Setaria faberi; settings: Preemergence, 1000 g ai/ha; visual rating after 10 days, 0 to 100 scale (0 no effect, 100 complete control)
Procedure, shortened: as §2

[12] = tested on: kochia; test: Test C postemergence; type: in vivo, Bassia scoparia; settings: Postemergence, 1000 g ai/ha; 0 to 100 scale, 0 no effect, 100 complete control
Procedure, shortened: as §2

[13] = tested on: ragweed; test: Test C preemergence; type: in vivo, Ambrosia artemisiifolia; settings: Preemergence, 1000 g ai/ha; visual rating after 10 days, 0 to 100 scale (0 no effect, 100 complete control)
Procedure, shortened: as §2

[14] = tested on: barnyardgrass; test: Test C postemergence; type: in vivo, Echinochloa crusgalli; settings: Postemergence, 1000 g ai/ha; 0 to 100 scale, 0 no effect, 100 complete control
Procedure, shortened: as §2

[15] = tested on: ragweed; test: Test C postemergence; type: in vivo, Ambrosia artemisiifolia; settings: Postemergence, 1000 g ai/ha; 0 to 100 scale, 0 no effect, 100 complete control
Procedure, shortened: as §2

[16] = tested on: ryegrass, Italian; test: Test C preemergence; type: in vivo, Lolium multiflorum; settings: Preemergence, 1000 g ai/ha; visual rating after 10 days, 0 to 100 scale (0 no effect, 100 complete control)
Procedure, shortened: as §2

Row | Compound | Plant response rating, Pigweed, Redroot [1] | Plant response rating, Blackgrass [2] | Plant response rating, Wheat [3] | Plant response rating, Galium [4] | Plant response rating, Corn [5] | Plant response rating, Pigweed, Redroot [6] | Plant response rating, Foxtail, Giant [7] | Plant response rating, Kochia [8] | Plant response rating, Ryegrass, Italian [9] | Plant response rating, Barnyardgrass [10] | Plant response rating, Foxtail, Giant [11] | Plant response rating, Kochia [12] | Plant response rating, Ragweed [13] | Plant response rating, Barnyardgrass [14] | Plant response rating, Ragweed [15] | Plant response rating, Ryegrass, Italian [16] | pest or weed control at 1000 g/ha ([2]; Alopecurus myosuroides, post-emergence, 240 h, read-out: Plant response rating, Blackgrass) | Corn plant response rating (crop injury, 0 = no effect, 100 = complete kill) at 1000 g/ha ([5]; Zea mays, post-emergence, 240 h)
1 | CC1CN(C(=O)c2ccnc(-c3ccccn3)c2)c2cccc(Cl)c2O1 (stereo not shown) [Compound 198] | 0 | 0 | 20 | 0 | 0 | 0 | 0 | 0 | 0 | 10 | 0 | 0 | 0 | 20 | 0 | 0 |  | 
2 | O=C(c1cccc(-n2cncn2)c1)N1CC2(CC2)Oc2ccccc21 [Compound 201] |  |  | 0 | 40 |  | 0 | 10 | 0 | 0 | 0 | 10 | 10 | 0 | 10 | 0 | 0 | 0% | 0%
